EC50 data for five molecules are collected here from BindingDB's records for doi:10.1021/acs.jmedchem.8b00789 (Laval University, 2018).

Assay [1] in a line: Antagonist activity at UT receptor in Sprague-Dawley rat thoracic aortic ring assessed as reduction in urotensin-2-induced contraction by measuring pEC50 for human urotensin-2-induced contraction at 1 x 10^-8M uM pre-incubated for 30 mins before urotensin-2 stimulation (Rvb = 8.59 +/- 0.12 No_unit).
Assay [2] is described as follows: Antagonist activity at UT receptor in Sprague-Dawley rat thoracic aortic ring assessed as reduction in urotensin-2-induced contraction by measuring pEC50 for human urotensin-2-induced contraction at 1 x 10^-7M uM pre-incubated for 30 mins before urotensin-2 stimulation (Rvb = 8.59 +/- 0.12 No_unit).
The nature of assay [3]: Antagonist activity at UT receptor in Sprague-Dawley rat thoracic aortic ring assessed as reduction in URP-induced contraction by measuring pEC50 for human urotensin-2-induced contraction at 1 x 10^-7M pre-incubated for 30 mins before urotensin-2 stimulation (Rvb = 8.16 +/- 0.08 No_unit).
The nature of assay [4]: Antagonist activity at UT receptor in Sprague-Dawley rat thoracic aortic ring assessed as reduction in URP-induced contraction by measuring pEC50 for human urotensin-2-induced contraction at 3 x 10^-10M pre-incubated for 30 mins before urotensin-2 stimulation (Rvb = 8.16 +/- 0.08 No_unit).
Assay [5] in a line: Antagonist activity at UT receptor in Sprague-Dawley rat thoracic aortic ring assessed as reduction in urotensin-2-induced contraction by measuring pEC50 for human urotensin-2-induced contraction at 1 uM pre-incubated for 30 mins before urotensin-2 stimulation (Rvb = 8.59 +/- 0.12 No_unit).
Assay [6] can be described thus: Antagonist activity at UT receptor in Sprague-Dawley rat thoracic aortic ring assessed as reduction in URP-induced contraction by measuring pEC50 for human urotensin-2-induced contraction at 1 uM pre-incubated for 30 mins before urotensin-2 stimulation (Rvb = 8.16 +/- 0.08 No_unit).

Broadly, the EC50 is the concentration needed to bring the measured effect to its halfway point.

With `CC(C)[C@H](NC(=O)[C@@H]1CSSC[C@H](NC(=O)[C@H](C)N)C(=O)N[C@@H](Cc2ccc(-c3ccccc3)cc2)C(=O)N[C@@H](Cc2c[nH]c3ccccc23)C(=O)N[C@@H](CCCCN)C(=O)N[C@@H](Cc2ccc(O)cc2)C(=O)N1)C(=O)O`, the half-maximal effective concentration (EC50) in assay [1] was found to be 7.2 nM; in assay [2] it was 17 nM; in assay [3], 112 nM; in assay [4], 35 nM.
For the molecule `CC(C)[C@H](NC(=O)[C@@H]1CSSC[C@H](NC(=O)[C@@H](N)CC(=O)O)C(=O)N[C@H](Cc2ccc(I)cc2)C(=O)N[C@@H](Cc2c[nH]c3ccccc23)C(=O)N[C@@H](CCCCN)C(=O)N[C@@H](Cc2ccc(O)cc2)C(=O)N1)C(=O)O`, the concentration for a half-maximal effect (EC50) in assay [5] was 1.1 nM; in assay [6], 12 nM.
For `CC(C)[C@H](NC(=O)[C@@H]1CSSC[C@H](NC(=O)[C@H](C)N)C(=O)N[C@H](Cc2ccc(I)cc2)C(=O)N[C@@H](Cc2c[nH]c3ccccc23)C(=O)N[C@@H](CCCCN)C(=O)N[C@@H](Cc2ccc(O)cc2)C(=O)N1)C(=O)O` the same measures were 3.2 nM and 13 nM.
With `CC(C)[C@H](NC(=O)[C@@H]1CSSC[C@H](NC(=O)[C@H](C)N)C(=O)N[C@H](Cc2ccc(C#Cc3ccccc3)cc2)C(=O)N[C@@H](Cc2c[nH]c3ccccc23)C(=O)N[C@@H](CCCCN)C(=O)N[C@@H](Cc2ccc(O)cc2)C(=O)N1)C(=O)O`, the EC50 was 5.4 nM in assay [5] and 18 nM in assay [6].
For `CC(C)[C@H](NC(=O)[C@@H]1CSSC[C@H](NC(=O)[C@H](C)N)C(=O)N[C@H](Cc2ccc(-c3ccccc3)cc2)C(=O)N[C@@H](Cc2c[nH]c3ccccc23)C(=O)N[C@@H](CCCCN)C(=O)N[C@@H](Cc2ccc(O)cc2)C(=O)N1)C(=O)O`, in that order: 6.8 nM and 2.8 nM.
